Laboratory results as given in ChEMBL document CHEMBL3297657, “Synthesis and antitumor activities of novel α-aminophosphonate derivatives containing an alizarin moiety” (Eur J Med Chem, 2014).
The source made the active and inactive calls. The rule behind the calls is not given here.

Key:
HeLa = assay: cells; settings: Homo sapiens, 48 h
Description: Cytotoxicity against human HeLa cells after 48 hrs by MTT assay

HUVEC = assay: Cytotoxicity against HUVEC after 48 hrs by MTT assay; type: cell-based; settings: Homo sapiens
A549 = assay: cells; settings: Homo sapiens, A549, 48 h
Description: Cytotoxicity against human A549 cells after 48 hrs by MTT assay

HCT-116 = assay: cells; settings: Homo sapiens, HCT-116, 48 h
Description: Cytotoxicity against human HCT116 cells after 48 hrs by MTT assay

HepG2 = assay: cells; settings: Homo sapiens, HepG2, 48 h
Description: Cytotoxicity against human HepG2 cells after 48 hrs by MTT assay

NCI-H460 [1] = assay: Cytotoxicity against human NCI-H460 cells after 48 hrs by MTT assay; type: functional, cell-based; settings: NCI-H460, 48 h
MGC-803 = assay: Cytotoxicity against human MGC803 cells after 48 hrs by MTT assay; type: functional, cell-based; settings: MGC-803, 48 h
CNE = assay: Cytotoxicity against human CNE cells after 48 hrs by MTT assay; type: functional, cell-based
KB = assay: Cytotoxicity against human KB cells after 48 hrs by MTT assay; type: functional, cell-based
NCI-H460 [2] = assay: Induction of apoptosis in human NCI-H460 cells assessed as early apoptotic cells at 5 to 20 uM after 24 hrs by Annexin V/propidium iodide staining-based flow cytometry relative to control; type: functional, cell-based

| SMILES | IC50 (HeLa) | IC50 (HUVEC) | IC50 (A549) | IC50 (HCT-116) | IC50 (HepG2) | IC50 (NCI-H460 [1]) | IC50 (MGC-803) | IC50 (CNE) | IC50 (KB) | Activity (NCI-H460 [2]) |
| --- | --- | --- | --- | --- | --- | --- | --- | --- | --- | --- |
| CCOP(=O)(OCC)C(NC(=O)C(C)Oc1ccc2c(c1O)C(=O)c1ccccc1C2=O)c1ccc(Br)cc1 (stereo not drawn) | 10.9 µM | 22.2 µM | 30.3 µM | 12.4 µM | 22.2 µM | 7.83 µM | 18.5 µM | 22.2 µM | 0.26 µM |  |
| CCOP(=O)(OCC)C(NC(=O)C(C)Oc1ccc2c(c1O)C(=O)c1ccccc1C2=O)c1cccc(Cl)c1 (stereo not drawn) | 12.9 µM | 70.8 µM | 18.7 µM | 36.3 µM | 70.8 µM | 9.1 µM | 29 µM | > 50 µM | 0.22 µM |  |
| CCOP(=O)(OCC)C(NC(=O)C(C)Oc1ccc2c(c1O)C(=O)c1ccccc1C2=O)c1ccc(Cl)cc1 (stereo not drawn) | 12.7 µM | 31.8 µM | 10.7 µM | 15.6 µM | 31.8 µM | 5.11 µM | 25.1 µM | 48.7 µM | 0.2 µM |  |
| CCOP(=O)(OCC)C(NC(=O)COc1ccc2c(c1O)C(=O)c1ccccc1C2=O)c1cccc(OC)c1 (stereo not drawn) | > 50 µM | > 50 µM | 44.1 µM | 49.8 µM | > 50 µM | 27.9 µM | 38 µM |  | 15.5 µM |  |
| CCOP(=O)(OCC)C(NC(=O)COc1ccc2c(c1O)C(=O)c1ccccc1C2=O)c1cccc(C)c1 (stereo not drawn) | 10.6 µM | > 50 µM | 47 µM | 16 µM | 28.5 µM | 33.9 µM | 37.9 µM |  | 12 µM |  |
| CCOP(=O)(OCC)C(NC(=O)COc1ccc2c(c1O)C(=O)c1ccccc1C2=O)c1ccccc1F (stereo not drawn) | > 50 µM | > 50 µM | 37.8 µM | 14.7 µM | > 50 µM | 12.9 µM | 27.1 µM |  | 2.6 µM |  |
| CCOP(=O)(OCC)C(NC(=O)C(C)Oc1ccc2c(c1O)C(=O)c1ccccc1C2=O)c1ccccc1Cl (stereo not drawn) | 20.9 µM | 19.9 µM | 10.1 µM | 14.8 µM | 19.9 µM | 3.8 µM | 11 µM | 43.1 µM | 0.14 µM | Active |
| CCOP(=O)(OCC)C(NC(=O)C(C)Oc1ccc2c(c1O)C(=O)c1ccccc1C2=O)c1cccc(F)c1 (stereo not drawn) | > 50 µM | > 50 µM | 35.1 µM | 47.1 µM | > 50 µM | 25.9 µM | 28.9 µM | > 50 µM | 9.12 µM |  |
| O=c1[nH]cc(F)c(=O)[nH]1 [FLUOROURACIL] | 23.3 µM | 24.1 µM |  | 10.1 µM | 38.3 µM | 45.1 µM | 46.9 µM | 45.1 µM | 1.23 µM |  |
| CCOP(=O)(OCC)C(NC(=O)C(C)Oc1ccc2c(c1O)C(=O)c1ccccc1C2=O)c1ccc(F)cc1 (stereo not drawn) | 34.1 µM | 25.3 µM | 19.4 µM | 17.9 µM | 25.3 µM | 8.92 µM | 22.9 µM | > 50 µM | 0.87 µM |  |
| O=C1c2ccccc2C(=O)c2c1ccc(O)c2O [ATHRAQUINONES A] | > 100 µM | > 50 µM | > 50 µM | > 50 µM | > 50 µM | > 50 µM | 39.4 µM | > 100 µM | 15.7 µM |  |
| CCOP(=O)(OCC)C(NC(=O)COc1ccc2c(c1O)C(=O)c1ccccc1C2=O)c1ccc(OC)cc1 (stereo not drawn) | > 50 µM | > 50 µM | 42.2 µM | 44.9 µM | > 50 µM | 20 µM | 36.1 µM |  | 7.32 µM |  |
| CCOP(=O)(OCC)C(NC(=O)C(C)Oc1ccc2c(c1O)C(=O)c1ccccc1C2=O)c1cccc(Br)c1 (stereo not drawn) | 11 µM | 23.6 µM | 32.8 µM | 15.7 µM | 23.6 µM | 10.7 µM | 27.5 µM | > 50 µM | 2.29 µM |  |
| CCOP(=O)(OCC)C(NC(=O)C(C)Oc1ccc2c(c1O)C(=O)c1ccccc1C2=O)c1ccccc1 (stereo not drawn) | > 50 µM | > 50 µM | 34.6 µM | 8.07 µM | > 50 µM | 8.11 µM | 6.66 µM | > 50 µM | 0.65 µM | Active |
